As usually defined, the IC50 is the point on the concentration scale where inhibition reaches its midpoint. Broadly, the GI50 is the concentration that inhibits growth by half.

These results are taken from paper PMC10233710 (ChemMedChem, 2023).

One assay has as its target recombinant human TDP1 (Homo sapiens, UniProt Q9NUW8). The assay is described as follows: TDP1 gel-based inhibition assay. It is filed as biochemical.
For the next assay, the system named is MCF-7 cells. The assay is described as follows: MTT cytotoxicity assay, MCF-7. To be noted: read-out: GI50 ± SD (μM) MCF-7. The class given is cell-based, human. (In general: Formazan colour is commonly taken as a measure of viable cells.)
For another assay, the system named is HCT-116 cells. Description: MTT cytotoxicity assay, HCT-116. The settings on record: read-out: GI50 ± SD (μM) HCT-116. The class given is cell-based, human.
The next assay has as its target T1, recombinant TOP1 (Homo sapiens, UniProt P11387).
T1 sequence (P11387 1-765): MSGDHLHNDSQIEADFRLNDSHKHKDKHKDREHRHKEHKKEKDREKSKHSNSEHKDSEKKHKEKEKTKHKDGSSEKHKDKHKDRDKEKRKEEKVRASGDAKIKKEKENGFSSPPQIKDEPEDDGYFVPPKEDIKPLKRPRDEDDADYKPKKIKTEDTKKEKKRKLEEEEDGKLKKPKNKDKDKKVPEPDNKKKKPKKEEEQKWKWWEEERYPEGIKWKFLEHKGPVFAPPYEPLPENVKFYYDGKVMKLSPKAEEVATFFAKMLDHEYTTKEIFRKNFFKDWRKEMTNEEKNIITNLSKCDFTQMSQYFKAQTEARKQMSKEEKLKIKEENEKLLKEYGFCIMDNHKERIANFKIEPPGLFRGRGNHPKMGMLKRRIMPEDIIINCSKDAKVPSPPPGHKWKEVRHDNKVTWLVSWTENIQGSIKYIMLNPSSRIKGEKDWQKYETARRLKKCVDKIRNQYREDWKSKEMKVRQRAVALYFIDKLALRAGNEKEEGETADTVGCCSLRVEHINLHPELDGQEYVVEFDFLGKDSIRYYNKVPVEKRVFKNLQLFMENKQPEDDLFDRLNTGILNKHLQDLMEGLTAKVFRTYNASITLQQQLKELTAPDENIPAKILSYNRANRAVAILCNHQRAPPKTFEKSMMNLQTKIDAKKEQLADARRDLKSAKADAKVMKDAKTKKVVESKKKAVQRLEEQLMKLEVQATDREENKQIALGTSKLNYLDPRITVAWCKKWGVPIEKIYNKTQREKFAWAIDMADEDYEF
The assay is described as follows: TOP1-mediated DNA cleavage assay. To be noted: TOP1 cleavage inhibitory activity, semiquantitative relative to CPT at 1 μM. The class given is biochemical.

Where two headings read alike, the source gives them in different places.

recombinant human TDP1, sequence (Q9NUW8 whole entry): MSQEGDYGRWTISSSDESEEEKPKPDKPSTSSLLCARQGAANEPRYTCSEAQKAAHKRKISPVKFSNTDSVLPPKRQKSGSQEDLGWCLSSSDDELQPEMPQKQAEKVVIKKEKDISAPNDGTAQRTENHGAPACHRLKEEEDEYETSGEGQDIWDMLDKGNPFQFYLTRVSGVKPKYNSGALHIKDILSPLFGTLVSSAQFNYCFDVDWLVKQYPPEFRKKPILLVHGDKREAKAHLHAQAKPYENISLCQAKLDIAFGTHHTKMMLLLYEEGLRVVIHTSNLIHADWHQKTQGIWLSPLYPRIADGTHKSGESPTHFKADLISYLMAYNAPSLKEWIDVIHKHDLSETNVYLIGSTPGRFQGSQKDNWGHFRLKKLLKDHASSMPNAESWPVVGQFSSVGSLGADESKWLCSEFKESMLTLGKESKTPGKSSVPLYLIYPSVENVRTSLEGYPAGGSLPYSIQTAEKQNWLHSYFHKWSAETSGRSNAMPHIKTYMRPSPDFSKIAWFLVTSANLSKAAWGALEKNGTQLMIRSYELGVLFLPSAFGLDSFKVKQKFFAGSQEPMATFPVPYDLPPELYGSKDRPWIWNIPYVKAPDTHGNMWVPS

Regarding `COc1cc2c(=O)n(C)c3c4cc5c(cc4ccc3c2cc1OC)OCO5` [Compound 4, oxynitidine, reference compound], the IC50 at recombinant human TDP1 (read-out: IC50 (μM) for TDP1, gel-based assay, Table 1) was greater than 111 µM. In addition, the GI50 was greater than 100 µM in the assay on MCF-7 cells (MTT assay, 72 h, Table 1) and 75 ± 4.4 µM in the assay on HCT-116 cells (MTT assay, 72 h, Table 1).

Regarding `COc1cc2c(=O)n(C)c3c4cc5c(cc4c(OC(C)=O)cc3c2cc1OC)OCO5` [Compound 10, 2,3-Dimethoxy-12-methyl-13-oxo-12,13-dihydro-[1,3]dioxolo[4’,5’:4,5]benzo[1,2-c]phenanthridin-6-yl acetate], at recombinant human TDP1, the IC50 is greater than 111 µM. In addition, the GI50 was greater than 100 µM in the assay with MCF-7 cells (Homo sapiens, MCF7, 72 h) and greater than 100 µM with HCT-116 cells (Homo sapiens, HCT-116, 72 h). The “TOP1 Inhibition” value on recombinant TOP1 (Table 1) is “+ (+, between 20% and 50% activity)”.

As to `COc1cc2c(=O)n(C)c3c4cc5c(cc4c(O)cc3c2cc1OC)OCO5` [Compound 11, 6-Hydroxy-2,3-dimethoxy-12-methyl-[1,3]dioxolo[4’,5’:4,5]benzo[1,2-c]phenanthridin-13(12H)-one], the IC50 at recombinant human TDP1 is greater than 111 µM. The GI50 was greater than 100 µM in the assay with MCF-7 cells (Homo sapiens, MCF7, 72 h) and greater than 100 µM in the assay with HCT-116 cells (Homo sapiens, HCT-116, 72 h). Besides, the “TOP1 Inhibition” value on recombinant TOP1 (Table 1) turned out to be 0.

As for `CNCCOc1cc2c3cc(OC)c(OC)cc3c(=O)n(C)c2c2cc3c(cc12)OCO3` [Compound 12, 2,3-Dimethoxy-12-methyl-6-(2-(methylamino)ethoxy)-[1,3]dioxolo[4’,5’:4,5]benzo[1,2-c]phenanthridin-13(12H)-one], on recombinant human TDP1, the IC50 was greater than 111 µM. Moreover, the GI50 in the assay with MCF-7 cells (Homo sapiens, MCF7, 72 h) was found to be 2.2 ± 0.06 µM; with HCT-116 cells (Homo sapiens, HCT-116, 72 h), 1.3 ± 0.12 µM. In addition, the “TOP1 Inhibition” value on recombinant TOP1 (Table 1) was “+++ (+++, between 75% and 95% activity)”.

On to `CNCCCOc1cc2c3cc(OC)c(OC)cc3c(=O)n(C)c2c2cc3c(cc12)OCO3` [Compound 13, 2,3-Dimethoxy-12-methyl-6-(3-(methylamino)propoxy)-[1,3]dioxolo[4’,5’:4,5]benzo[1,2-c]phenanthridin-13(12H)-one], for which the IC50 on recombinant human TDP1 is greater than 111 µM. The GI50 with MCF-7 cells (Homo sapiens, MCF7, 72 h) came out at 33 ± 5 µM; in the assay with HCT-116 cells (Homo sapiens, HCT-116, 72 h), 12 ± 1.2 µM. For the same molecule, the “TOP1 Inhibition” value on recombinant TOP1 (Table 1) is “+ (+, between 20% and 50% activity)”.

For the molecule `COc1cc2c(=O)n(C)c3c4cc5c(cc4c(OCCN(C)C)cc3c2cc1OC)OCO5` [Compound 14, 6-(2-(Dimethylamino)ethoxy)-2,3-dimethoxy-12-methyl-[1,3]dioxolo[4’,5’:4,5]benzo[1,2-c]phenanthridin-13(12H)-one], on recombinant human TDP1, the IC50 lay within 37 to 111 µM. In addition, the GI50 in the assay on MCF-7 cells (Homo sapiens, MCF7, 72 h) was 8.5 ± 0.91 µM; in the assay with HCT-116 cells (Homo sapiens, HCT-116, 72 h), 4.6 ± 0.41 µM. Moreover, the “TOP1 Inhibition” value on recombinant TOP1 (Table 1) was “+ (+, between 20% and 50% activity)”.

`COc1cc2c(=O)n(C)c3c4cc5c(cc4c(OCCCN(C)C)cc3c2cc1OC)OCO5` [Compound 15, 6-(3-(Dimethylamino)propoxy)-2,3-dimethoxy-12-methyl-[1,3]dioxolo[4’,5’:4,5]benzo[1,2-c]phenanthridin-13(12H)-one]: the IC50 on recombinant human TDP1 was greater than 111 µM. Also, the 50% growth inhibitory concentration (GI50) in the assay with MCF-7 cells (Homo sapiens, MCF7, 72 h) turned out to be 54 ± 4.9 µM; in the assay on HCT-116 cells (Homo sapiens, HCT-116, 72 h), 36 ± 1.3 µM. Also, at recombinant TOP1 (Table 1), the “TOP1 Inhibition” value is “+ (+, between 20% and 50% activity)”.

For `COc1cc2c(=O)n(C)c3c4cc5c(cc4c(OCCN4CCCCC4)cc3c2cc1OC)OCO5` [Compound 16, 2,3-Dimethoxy-12-methyl-6-(2-(piperidin-1-yl)ethoxy)-[1,3]dioxolo[4’,5’:4,5]benzo[1,2-c]phenanthridin-13(12H)-one], the IC50 at recombinant human TDP1 is greater than 111 µM. Moreover, the GI50 was 22 ± 7.7 µM in the assay on MCF-7 cells (Homo sapiens, MCF7, 72 h) and greater than 100 µM with HCT-116 cells (Homo sapiens, HCT-116, 72 h). Further, the “TOP1 Inhibition” value on recombinant TOP1 (Table 1) is “+ (+, between 20% and 50% activity)”.

Consider `COc1cc2c(=O)n(C)c3c4cc5c(cc4c(OCCCN4CCCCC4)cc3c2cc1OC)OCO5` [Compound 17, 2,3-Dimethoxy-12-methyl-6-(3-(piperidin-1-yl)propoxy)-[1,3]dioxolo[4’,5’:4,5]benzo[1,2-c]phenanthridin-13(12H)-one], for which the IC50 on recombinant human TDP1 was greater than 111 µM. The GI50 in the assay with MCF-7 cells (Homo sapiens, MCF7, 72 h) came out at 6.6 ± 1.3 µM; in the assay on HCT-116 cells (Homo sapiens, HCT-116, 72 h) it was 1.8 ± 0.32 µM. Besides, on recombinant TOP1 (Table 1), the “TOP1 Inhibition” value is “++ (++, between 50% and 75% activity)”.

As for `COc1cc2c(=O)n(C)c3c4cc5c(cc4c(OCCN4CCN(C)CC4)cc3c2cc1OC)OCO5` [Compound 18, 2,3-Dimethoxy-12-methyl-6-(2-(4-methylpiperazin-1-yl)ethoxy)-[1,3]dioxolo[4’,5’:4,5]benzo[1,2-c]phenanthridin-13(12H)-one], the IC50 on recombinant human TDP1 lay in the range of 37 to 111 µM. Moreover, the GI50 was found to be 7 ± 1.3 µM with MCF-7 cells (Homo sapiens, MCF7, 72 h) and 7.7 ± 0.56 µM with HCT-116 cells (Homo sapiens, HCT-116, 72 h). The “TOP1 Inhibition” value on recombinant TOP1 (Table 1) is “+ (+, between 20% and 50% activity)”.

Regarding `COc1cc2c(=O)n(C)c3c4cc5c(cc4c(OCCCN4CCN(C)CC4)cc3c2cc1OC)OCO5` [Compound 19, 2,3-Dimethoxy-12-methyl-6-(3-(4-methylpiperazin-1-yl)propoxy)-[1,3]dioxolo[4’,5’:4,5]benzo[1,2-c]phenanthridin-13(12H)-one], on recombinant human TDP1, the IC50 is greater than 111 µM. In addition, the GI50 came out at 0.93 ± 0.07 µM in the assay on MCF-7 cells (Homo sapiens, MCF7, 72 h) and 1.5 ± 0.21 µM in the assay on HCT-116 cells (Homo sapiens, HCT-116, 72 h). For the same molecule, the “TOP1 Inhibition” value at recombinant TOP1 (Table 1) is “++ (++, between 50% and 75% activity)”.

Regarding `COc1cc2c(=O)n(C)c3c4cc5c(cc4c(OCCn4ccnc4)cc3c2cc1OC)OCO5` [Compound 20, 6-(2-(1H-Imidazol-1-yl)ethoxy)-2,3-dimethoxy-12-methyl-[1,3]dioxolo[4’,5’:4,5]benzo[1,2-c]phenanthridin-13(12H)-one], the IC50 at recombinant human TDP1 is greater than 111 µM. Besides, the GI50 in the assay with MCF-7 cells (Homo sapiens, MCF7, 72 h) came out at 2.7 ± 0.23 µM; with HCT-116 cells (Homo sapiens, HCT-116, 72 h), 2.9 ± 0.45 µM. For the same molecule, the “TOP1 Inhibition” value at recombinant TOP1 (Table 1) is “++ (++, between 50% and 75% activity)”.

In the case of `COc1cc2c(=O)n(C)c3c4cc5c(cc4c(OCCCn4ccnc4)cc3c2cc1OC)OCO5` [Compound 21, 6-(3-(1H-Imidazol-1-yl)propoxy)-2,3-dimethoxy-12-methyl-[1,3]dioxolo[4’,5’:4,5]benzo[1,2-c]phenanthridin-13(12H)-one], at recombinant human TDP1, the IC50 is greater than 111 µM. Moreover, the GI50 in the assay on MCF-7 cells (Homo sapiens, MCF7, 72 h) was determined as 64 ± 3.9 µM; with HCT-116 cells (Homo sapiens, HCT-116, 72 h), 16 ± 3.6 µM. For the same molecule, at recombinant TOP1 (Table 1), the “TOP1 Inhibition” value is given as 0.

On to `COc1cc2c(=O)n(C)c3c4cc5c(cc4c(OCCNCCN(C)C)cc3c2cc1OC)OCO5` [Compound 22, 6-(2-((2-(Dimethylamino)ethyl)amino)ethoxy)-2,3-dimethoxy-12-methyl-[1,3]dioxolo[4’,5’:4,5]benzo[1,2-c]phenanthridin-13(12H)-one], for which the IC50 at recombinant human TDP1 was greater than 111 µM. Further, the GI50 in the assay on MCF-7 cells (Homo sapiens, MCF7, 72 h) is 9.1 ± 2.4 µM; in the assay on HCT-116 cells (Homo sapiens, HCT-116, 72 h), 9.1 ± 1 µM. In addition, the “TOP1 Inhibition” value on recombinant TOP1 (Table 1) is “+ (+, between 20% and 50% activity)”.

Turning to `CCOC(=O)COc1cc2c3cc(OC)c(OC)cc3c(=O)n(C)c2c2cc3c(cc12)OCO3` [Compound 23, Ethyl 2-((2,3-dimethoxy-12-methyl-13-oxo-12,13-dihydro-[1,3]dioxolo[4’,5’:4,5]benzo[1,2-c]phenanthridin-6-yl)oxy)acetate], the IC50 on recombinant human TDP1 is greater than 111 µM. The GI50 in the assay with MCF-7 cells (Homo sapiens, MCF7, 72 h) is 91 ± 5.9 µM; with HCT-116 cells (Homo sapiens, HCT-116, 72 h), greater than 100 µM. Moreover, the “TOP1 Inhibition” value on recombinant TOP1 (Table 1) came to 0.

`COc1cc2c(=O)n(C)c3c4cc5c(cc4cc(O)c3c2cc1OC)OCO5` [Compound 33, 5-Hydroxy-2,3-dimethoxy-12-methyl-[1,3]dioxolo[4’,5’:4,5]benzo[1,2-c]phenanthridin-13(12H)-one]: the IC50 on recombinant human TDP1 was greater than 111 µM. In addition, the GI50 in the assay with MCF-7 cells (Homo sapiens, MCF7, 72 h) is greater than 100 µM; in the assay on HCT-116 cells (Homo sapiens, HCT-116, 72 h) it was greater than 100 µM. For the same molecule, on recombinant TOP1 (Table 2), the “TOP1 Inhibition” value is “+ (+, between 20% and 50% activity)”.
